Data reported in ChEMBL document CHEMBL5252637, “Identification of a new class of proteasome inhibitors based on a naphthyl-azotricyclic-urea-phenyl scaffold” (RSC Med Chem, 2023).

Tests used:
[1] = target: T1, Proteasome Macropain subunit MB1 (Homo sapiens, UniProt P28074); assay: Competitive inhibition of human 20S constitutive proteosome beta5c subunit using Suc-LLVY-AMC as substrate measured after 10 mins by fluorescence based analysis
T1 sequence (P28074 whole entry): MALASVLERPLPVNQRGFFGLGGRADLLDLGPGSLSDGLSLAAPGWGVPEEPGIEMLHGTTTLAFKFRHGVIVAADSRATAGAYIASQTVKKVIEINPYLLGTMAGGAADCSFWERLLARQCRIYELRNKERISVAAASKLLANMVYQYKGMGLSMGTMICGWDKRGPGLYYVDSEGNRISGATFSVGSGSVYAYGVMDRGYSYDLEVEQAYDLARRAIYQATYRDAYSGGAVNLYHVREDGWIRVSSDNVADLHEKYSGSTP

[2] = target: T1, Proteasome Macropain subunit MB1; assay: Inhibition of human 20S constitutive proteosome beta5c subunit using Suc-LLVY-AMC as substrate measured after 10 mins by fluorescence based analysis

Ki [1] [µM] | IC50 [2] [µM] | Structure (SMILES)
4.6 | 6.65 | COc1ccccc1NC(=O)Nc1ccc2n(c1=O)C[C@@H]1C[C@H]2CN(C(=O)c2ccc3ccccc3c2)C1
– | 201 | N#Cc1cccc(NC(=O)Nc2ccc3n(c2=O)C[C@@H]2C[C@H]3CN(C(=O)c3ccccc3)C2)c1
– | 560 | COc1ccccc1NC(=O)Nc1ccc2n(c1=O)C[C@@H]1C[C@H]2CN(C(=O)c2ccccn2)C1
– | 440 | N#Cc1cccc(NC(=O)Nc2ccc3n(c2=O)C[C@@H]2C[C@H]3CN(C(=O)c3cccnc3)C2)c1
9.69 | 11.1 | O=C(Nc1ccccc1)Nc1ccc2n(c1=O)C[C@@H]1C[C@H]2CN(C(=O)c2ccc3ccccc3c2)C1
1.14 | 3.43 | O=C(Nc1ccc(Cl)cc1)Nc1ccc2n(c1=O)C[C@@H]1C[C@H]2CN(C(=O)c2ccc3ccccc3c2)C1
3.42 | 10.3 | N#Cc1cccc(NC(=O)Nc2ccc3n(c2=O)C[C@@H]2C[C@H]3CN(C(=O)c3ccc4ccccc4c3)C2)c1

Structure (SMILES) | Ki [1] [µM] | IC50 [2] [µM]
CC(=O)N1C[C@H]2C[C@@H](C1)c1ccc(NC(=O)Nc3cccc(C#N)c3)c(=O)n1C2 | – | 491
O=C(Nc1ccccc1)Nc1ccc2n(c1=O)C[C@@H]1C[C@H]2CN(C(=O)c2ccccn2)C1 | – | > 500
